# Values quoted from earlier work, collected in article PMC9329312, “Decoding kinase-adverse event associations for small molecule kinase inhibitors” (Nature Communications, 2022).
# Settings: ref FAERS
compound,measurement,value
CCOc1cc2ncc(C#N)c(Nc3ccc(OCc4ccccn4)c(Cl)c3)c2cc1NC(=O)/C=C/CN(C)C [neratinib],"Abdominal discomfort, % of Cases",4.8%
same,"Abdominal distension, % of Cases",3.4%
same,"Abdominal neoplasm, % of Cases",0.075%
same,"Abdominal pain lower, % of Cases",0.075%
same,"Abdominal pain upper, % of Cases",6.0%
same,"Abdominal pain, % of Cases",6.2%
same,"Abdominal tenderness, % of Cases",0.15%
same,"Abnormal faeces, % of Cases",0.15%
same,"Abscess, % of Cases",0.15%
same,"Accidental overdose, % of Cases",0.15%
same,"Acne, % of Cases",1.5%
same,"Acute kidney injury, % of Cases",0.6%
same,"Acute respiratory failure, % of Cases",0.075%
same,"Adrenal mass, % of Cases",0.075%
same,"Adrenocortical insufficiency acute, % of Cases",0.075%
same,"Adverse drug reaction, % of Cases",2.6%
same,"Adverse event, % of Cases",0.075%
same,"Ageusia, % of Cases",0.225%
same,"Alanine aminotransferase increased, % of Cases",0.6%
same,"Alopecia, % of Cases",0.5%
same,"Amenorrhoea, % of Cases",0.075%
same,"Amnesia, % of Cases",0.15%
same,"Anaemia, % of Cases",0.6%
same,"Anal cancer metastatic, % of Cases",0.075%
same,"Anal fissure, % of Cases",0.075%
same,"Anal incontinence, % of Cases",0.075%
same,"Anal inflammation, % of Cases",0.075%
same,"Anger, % of Cases",0.075%
same,"Animal bite, % of Cases",0.075%
same,"Animal scratch, % of Cases",0.075%
same,"Anxiety, % of Cases",0.9%
same,"Aphasia, % of Cases",0.075%
same,"Aphonia, % of Cases",0.225%
same,"Aphthous ulcer, % of Cases",0.075%
same,"Aplastic anaemia, % of Cases",0.075%
same,"Appendicitis perforated, % of Cases",0.075%
same,"Appendicitis, % of Cases",0.15%
same,"Appetite disorder, % of Cases",0.15%
same,"Arthralgia, % of Cases",2.4%
same,"Arthritis, % of Cases",0.375%
same,"Ascites, % of Cases",0.225%
same,"Aspartate aminotransferase increased, % of Cases",0.3%
same,"Aspergillus infection, % of Cases",0.075%
same,"Asthenia, % of Cases",4.1%
same,"Asthenopia, % of Cases",0.075%
same,"Asthma, % of Cases",0.15%
same,"Astigmatism, % of Cases",0.075%
same,"Atrial fibrillation, % of Cases",0.075%
same,"Back pain, % of Cases",0.9%
same,"Bacterial infection, % of Cases",0.075%
same,"Balance disorder, % of Cases",0.225%
same,"Biliary cirrhosis, % of Cases",0.075%
same,"Bladder dilatation, % of Cases",0.075%
same,"Bladder spasm, % of Cases",0.225%
same,"Blister, % of Cases",0.15%
same,"Blood alkaline phosphatase increased, % of Cases",0.15%
same,"Blood bilirubin increased, % of Cases",0.15%
same,"Blood calcium decreased, % of Cases",0.075%
same,"Blood creatinine abnormal, % of Cases",0.075%
same,"Blood creatinine increased, % of Cases",0.8%
same,"Blood electrolytes decreased, % of Cases",0.15%
same,"Blood glucose decreased, % of Cases",0.225%
same,"Blood glucose fluctuation, % of Cases",0.075%
same,"Blood glucose increased, % of Cases",0.075%
same,"Blood iron decreased, % of Cases",0.225%
same,"Blood magnesium decreased, % of Cases",0.3%
same,"Blood potassium decreased, % of Cases",1.7%
same,"Blood pressure abnormal, % of Cases",0.075%
same,"Blood pressure decreased, % of Cases",0.225%
same,"Blood pressure increased, % of Cases",0.6%
same,"Blood sodium decreased, % of Cases",0.15%
same,"Blood urea increased, % of Cases",0.3%
same,"Blood urea nitrogen/creatinine ratio increased, % of Cases",0.075%
same,"Blood urine present, % of Cases",0.15%
same,"Bone cancer, % of Cases",0.075%
same,"Bone pain, % of Cases",0.75%
same,"Bowel movement irregularity, % of Cases",0.075%
same,"Brain cancer metastatic, % of Cases",0.15%
same,"Brain natriuretic peptide increased, % of Cases",0.075%
same,"Brain neoplasm malignant, % of Cases",0.075%
same,"Brain neoplasm, % of Cases",0.3%
same,"Brain oedema, % of Cases",0.075%
same,"Brain operation, % of Cases",0.15%
same,"Breast calcifications, % of Cases",0.075%
same,"Breast cancer metastatic, % of Cases",2.3%
same,"Breast cancer stage IV, % of Cases",0.45%
same,"Breast cancer, % of Cases",0.15%
same,"Breast cellulitis, % of Cases",0.15%
same,"Breast disorder, % of Cases",0.075%
same,"Breast haemorrhage, % of Cases",0.075%
same,"Breast pain, % of Cases",0.15%
same,"Breast reconstruction, % of Cases",0.375%
same,"Breast swelling, % of Cases",0.075%
same,"Brief resolved unexplained event, % of Cases",0.075%
same,"Bronchitis, % of Cases",0.075%
same,"Bundle branch block left, % of Cases",0.075%
same,"Burning sensation, % of Cases",0.3%
same,"COVID-19, % of Cases",0.15%
same,"Cachexia, % of Cases",0.075%
same,"Cancer pain, % of Cases",0.075%
same,"Candida infection, % of Cases",0.15%
same,"Carbohydrate antigen 15-3 increased, % of Cases",0.075%
same,"Cardiac disorder, % of Cases",0.075%
same,"Cardiac failure congestive, % of Cases",0.225%
same,"Cardiac operation, % of Cases",0.075%
same,"Cardio-respiratory arrest, % of Cases",0.075%
same,"Catatonia, % of Cases",0.075%
same,"Cellulitis staphylococcal, % of Cases",0.075%
same,"Cellulitis, % of Cases",0.15%
same,"Central nervous system haemorrhage, % of Cases",0.075%
same,"Central venous catheter removal, % of Cases",0.075%
same,"Central venous catheterisation, % of Cases",0.075%
same,"Cerebral cyst, % of Cases",0.075%
same,"Cerebrovascular accident, % of Cases",0.3%
same,"Chapped lips, % of Cases",0.075%
same,"Chest discomfort, % of Cases",0.15%
same,"Chest pain, % of Cases",0.6%
same,"Chest wall tumour, % of Cases",0.075%
same,"Chills, % of Cases",0.5%
same,"Cholangiocarcinoma, % of Cases",0.075%
same,"Cholecystectomy, % of Cases",0.075%
same,"Cholecystitis, % of Cases",0.075%
same,"Cholelithiasis, % of Cases",0.15%
same,"Chromaturia, % of Cases",0.15%
same,"Chronic fatigue syndrome, % of Cases",0.075%
same,"Chronic hepatic failure, % of Cases",0.075%
same,"Clostridium difficile colitis, % of Cases",0.075%
same,"Clostridium difficile infection, % of Cases",0.225%
same,"Coagulopathy, % of Cases",0.075%
same,"Cognitive disorder, % of Cases",0.15%
same,"Colectomy, % of Cases",0.075%
same,"Colitis ulcerative, % of Cases",0.075%
same,"Colitis, % of Cases",0.3%
same,"Colon cancer, % of Cases",0.15%
same,"Coma, % of Cases",0.075%
same,"Completed suicide, % of Cases",0.075%
same,"Condition aggravated, % of Cases",0.075%
same,"Confusional state, % of Cases",0.8%
same,"Conjunctivitis, % of Cases",0.075%
same,"Constipation, % of Cases",15.5%
same,"Contusion, % of Cases",0.225%
same,"Cough, % of Cases",1.4%
same,"Critical illness, % of Cases",0.075%
same,"Cyst, % of Cases",0.075%
same,"Cystitis, % of Cases",0.375%
same,"Deafness bilateral, % of Cases",0.075%
same,"Death, % of Cases",9.6%
same,"Decreased appetite, % of Cases",11.9%
same,"Deep vein thrombosis, % of Cases",0.075%
same,"Dehydration, % of Cases",6.6%
same,"Dementia, % of Cases",0.075%
same,"Dental operation, % of Cases",0.075%
same,"Depressed mood, % of Cases",0.3%
same,"Depression, % of Cases",0.75%
same,"Dermatitis acneiform, % of Cases",0.6%
same,"Dermatitis contact, % of Cases",0.075%
same,"Device related infection, % of Cases",0.225%
same,"Diabetic ketoacidosis, % of Cases",0.075%
same,"Diarrhoea haemorrhagic, % of Cases",0.225%
same,"Diarrhoea, % of Cases",61.8%
same,"Diplegia, % of Cases",0.075%
same,"Diplopia, % of Cases",0.075%
same,"Discomfort, % of Cases",0.075%
same,"Disease progression, % of Cases",1.7%
same,"Disorientation, % of Cases",0.075%
same,"Disturbance in attention, % of Cases",0.075%
same,"Diverticulitis, % of Cases",0.225%
same,"Dizziness, % of Cases",4.6%
same,"Drug eruption, % of Cases",0.075%
same,"Drug hypersensitivity, % of Cases",0.075%
same,"Drug ineffective, % of Cases",0.45%
same,"Drug interaction, % of Cases",0.075%
same,"Drug intolerance, % of Cases",1.0%
